Read-outs that look alike come from different tables or passages of the source. Marks after values point to notes of the source that are not given here.
Assays:
Format in all cases: in vivo
[1] = system: Fusarium graminearum; conditions: wheat head scab
[2] = system: Alternaria solani; experiment: Test H: tomato early blight, preventive spray on tomato seedlings, disease rating
Outline: (§1)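 Tomato seedlings sprayed to run-off, as a preventive treatment, with compound suspended in acetone/water (50/50) containing 250 ppm Trem 014 surfactant; 200 ppm equals 500 g/ha. Disease then rated. Values are at 200 ppm unless marked * (40 ppm) or ** (50 ppm).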

[3] = system: Puccinia recondita f. sp. tritici; experiment: Test B: wheat leaf rust, preventive spray on wheat seedlings, disease rating
Outline: (§2)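 Disease ratings come from wheat seedlings sprayed preventively to run-off, mostly at 200 ppm, which corresponds to an application rate of 500 g/ha; certain entries used 40 ppm or 50 ppm. The carrier was 50/50 acetone/water with 250 ppm surfactant.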

[4] = system: Septoria tritici; experiment: Test D: wheat leaf blotch, preventive spray on wheat seedlings, disease rating
Outline: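 Wheat seedlings sprayed to run-off with compound in acetone/water containing 250 ppm Trem 014 (200 ppm ≈ 500 g/ha; some results at 40 or 50 ppm), inoculated next day with Septoria tritici spores. Held 48 h saturated at 24 °C, then 19 days at 20 °C before disease rating.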

[5] = system: Erysiphe graminis f. sp. tritici; experiment: Test A: wheat powdery mildew, preventive spray on wheat seedlings, disease rating
Outline: as §2

[6] = system: Botrytis cinerea; experiment: Test F: tomato Botrytis, preventive spray on tomato seedlings, disease rating
Outline: as §1

[7] = system: Septoria nodorum; experiment: Test C: wheat glume blotch, preventive spray on wheat seedlings, disease rating
Outline: as §2

COC(=O)NCc1cc(-c2ccn(CCCC(c3ccc(F)cc3)c3ccc(F)cc3)n2)ccc1Cl [Cmpd 36]
Percentage Disease Control, Test E ([1]; 200 ppm): 26% | Percentage Disease Control, Test H ([2]; 200 ppm): 78% | Percentage Disease Control, Test B ([3]; 40 ppm (*)): 99* % | Percentage Disease Control, Test D ([4]; 40 ppm (*)): 97* % | Percentage Disease Control, Test A ([5]; 40 ppm (*)): 93* % | Percentage Disease Control, Test F ([6]; 200 ppm): 0% | Percentage Disease Control, Test C ([7]; 40 ppm (*)): 99* %

COC(=O)NCc1cc(-c2ccn(Cc3ccccc3Cl)n2)ccc1Cl [Cmpd 37]
Percentage Disease Control, Test E ([1]; 40 ppm (*)): 99* % | Percentage Disease Control, Test H ([2]; 200 ppm): 0% | Percentage Disease Control, Test B ([3]; 40 ppm (*)): 100* % | Percentage Disease Control, Test D ([4]; 40 ppm (*)): 100* % | Percentage Disease Control, Test A ([5]; 40 ppm (*)): 99* % | Percentage Disease Control, Test F ([6]; 200 ppm): 0% | Percentage Disease Control, Test C ([7]; 40 ppm (*)): 100* %

C#CCCCn1nc(-c2ccc(Cl)c(CNC(=O)OC)c2)cc1C [Cmpd 39]
Percentage Disease Control, Test E ([1]; 40 ppm (*)): 91* % | Percentage Disease Control, Test H ([2]; 200 ppm): 0% | Percentage Disease Control, Test B ([3]; 40 ppm (*)): 100* % | Percentage Disease Control, Test D ([4]; 40 ppm (*)): 100* % | Percentage Disease Control, Test A ([5]; 40 ppm (*)): 99* % | Percentage Disease Control, Test F ([6]; 200 ppm): 0% | Percentage Disease Control, Test C ([7]; 40 ppm (*)): 99* %

COC(=O)NCc1cc(-c2cc(C)n(CCC[Si](C)(C)C)n2)ccc1Cl [Cmpd 40]
Percentage Disease Control, Test E ([1]; 40 ppm (*)): 13* % | Percentage Disease Control, Test H ([2]; 40 ppm (*)): 50* % | Percentage Disease Control, Test B ([3]; 40 ppm (*)): 100* % | Percentage Disease Control, Test D ([4]; 40 ppm (*)): 100* % | Percentage Disease Control, Test A ([5]; 40 ppm (*)): 99* % | Percentage Disease Control, Test F ([6]; 40 ppm (*)): 0* % | Percentage Disease Control, Test C ([7]; 40 ppm (*)): 99* %

COC(=O)NCc1cc(-c2ccn(CCCC(C)C)n2)ccc1Cl [Cmpd 41]
Percentage Disease Control, Test E ([1]; 40 ppm (*)): 99* % | Percentage Disease Control, Test H ([2]; 200 ppm): 0% | Percentage Disease Control, Test B ([3]; 40 ppm (*)): 100* % | Percentage Disease Control, Test D ([4]; 40 ppm (*)): 98* % | Percentage Disease Control, Test A ([5]; 200 ppm): 99% | Percentage Disease Control, Test F ([6]; 200 ppm): 0% | Percentage Disease Control, Test C ([7]; 200 ppm): 100%

COC(=O)NCc1cc(-c2ccn(CCCc3ccccc3)n2)ccc1Cl [Cmpd 42]
Percentage Disease Control, Test E ([1]; 40 ppm (*)): 100* % | Percentage Disease Control, Test H ([2]; 200 ppm): 0% | Percentage Disease Control, Test B ([3]; 40 ppm (*)): 100* % | Percentage Disease Control, Test D ([4]; 40 ppm (*)): 100* % | Percentage Disease Control, Test A ([5]; 40 ppm (*)): 98* % | Percentage Disease Control, Test F ([6]; 200 ppm): 0% | Percentage Disease Control, Test C ([7]; 40 ppm (*)): 100* %

COC(=O)NCc1cc(-c2ccn(CCCF)n2)ccc1Cl [Cmpd 43]
Percentage Disease Control, Test E ([1]; 200 ppm): 94% | Percentage Disease Control, Test H ([2]; 200 ppm): 0% | Percentage Disease Control, Test B ([3]; 200 ppm): 99% | Percentage Disease Control, Test D ([4]; 200 ppm): 93% | Percentage Disease Control, Test A ([5]; 200 ppm): 91% | Percentage Disease Control, Test F ([6]; 200 ppm): 0% | Percentage Disease Control, Test C ([7]; 200 ppm): 95%

COC(=O)NCc1cc(-c2cc(C(F)(F)F)n(CCC[Si](C)(C)C)n2)ccc1Cl [Cmpd 45]
Percentage Disease Control, Test E ([1]; 200 ppm): 26% | Percentage Disease Control, Test H ([2]; 200 ppm): 0% | Percentage Disease Control, Test B ([3]; 40 ppm (*)): 100* % | Percentage Disease Control, Test D ([4]; 40 ppm (*)): 99* % | Percentage Disease Control, Test A ([5]; 40 ppm (*)): 99* % | Percentage Disease Control, Test F ([6]; 200 ppm): 0% | Percentage Disease Control, Test C ([7]; 200 ppm): 100%

CCCCn1ccc(-c2ccc(Cl)c(CNC(=O)OC)c2)n1 [Cmpd 46]
Percentage Disease Control, Test E ([1]; 40 ppm (*)): 94* % | Percentage Disease Control, Test H ([2]; 200 ppm): 0% | Percentage Disease Control, Test B ([3]; 40 ppm (*)): 99* % | Percentage Disease Control, Test D ([4]; 40 ppm (*)): 91* % | Percentage Disease Control, Test A ([5]; 40 ppm (*)): 94* % | Percentage Disease Control, Test F ([6]; 200 ppm): 0% | Percentage Disease Control, Test C ([7]; 200 ppm): 99%

COC(=O)NCc1cc(-c2nn(CCC[Si](C)(C)C)cc2Cl)ccc1Cl [Cmpd 47]
Percentage Disease Control, Test E ([1]; 200 ppm): 94% | Percentage Disease Control, Test H ([2]; 200 ppm): 66% | Percentage Disease Control, Test B ([3]; 40 ppm (*)): 100* % | Percentage Disease Control, Test D ([4]; 40 ppm (*)): 99* % | Percentage Disease Control, Test A ([5]; 40 ppm (*)): 98* % | Percentage Disease Control, Test F ([6]; 200 ppm): 0% | Percentage Disease Control, Test C ([7]; 40 ppm (*)): 100* %

COC(=O)NCc1cc(-c2ccn(-c3ccc(C)cn3)n2)ccc1Cl [Cmpd 48]
Percentage Disease Control, Test E ([1]; 40 ppm (*)): 94* % | Percentage Disease Control, Test H ([2]; 40 ppm (*)): 99* % | Percentage Disease Control, Test B ([3]; 40 ppm (*)): 100* % | Percentage Disease Control, Test D ([4]; 40 ppm (*)): 99* % | Percentage Disease Control, Test A ([5]; 40 ppm (*)): 65* % | Percentage Disease Control, Test F ([6]; 40 ppm (*)): 0* % | Percentage Disease Control, Test C ([7]; 40 ppm (*)): 99* %
